How the values were obtained:
[1] = tested on: Dengue virus; assay: Antiviral activity against dengue virus; format: functional, organism-based
[2] = target: T1, Nonstructural protein 5 (Dengue virus, UniProt V5TFZ2); assay: Inhibition of DENV2 2'-O-methyltransferase using m7G*pppA-RNA as substrate; parameters: species or system dengue virus type 2
[3] = Inhibition of DENV3 N7-methyltransferase using G*pppA-RNA as substrate; parameters: species or system dengue virus type 3
[4] = target: T1, Nonstructural protein 5; assay: Inhibition of DENV3 2'-O-methyltransferase using m7G*pppA-RNA as substrate; parameters: species or system dengue virus type 3
[5] = Inhibition of DENV2 N7-methyltransferase using G*pppA-RNA as substrate; parameters: species or system dengue virus type 2
[6] = tested on: dengue virus type 2; assay: Antiviral activity against DENV2 ICC-265 infected in human Huh7.5 cells after 72 hrs; format: functional, organism-based; settings: ICC-265, Huh7.5, 72 h
[7] = tested on: dengue virus type 1; assay: Antiviral activity against DENV1 FGA/89 infected in human Huh7.5 cells after 72 hrs; format: functional, organism-based; settings: FGA/89, Huh7.5, 72 h
[8] = tested on: dengue virus type 4; assay: Antiviral activity against DENV4 TVP360 infected in human Huh7.5 cells after 72 hrs; format: functional, organism-based; settings: TVP360, Huh7.5, 72 h
[9] = tested on: dengue virus type 3; assay: Antiviral activity against DENV3 97 infected in human Huh7.5 cells after 72 hrs; format: functional, organism-based; settings: Dengue virus, 97, Huh7.5, 72 h
[10] = tested on: dengue virus type 1; assay: Antiviral activity against DENV1 Djibouti infected in African green monkey Vero E6 cells after 3 to 4 days by RT-PCR analysis; format: functional, organism-based; settings: Vero C1008
[11] = tested on: dengue virus type 3; assay: Antiviral activity against DENV3 Bolivia infected in African green monkey Vero E6 cells after 3 to 4 days by RT-PCR analysis; format: functional, organism-based; settings: Vero C1008
[12] = target: T1, Nonstructural protein 5; assay: Inhibition of N-terminal His6-tagged DENV3 NS5 RNA dependent RNA polymerase (272 to 900 residues) after 1 hr by fluorescence assay; parameters: species or system dengue virus type 3
[13] = tested on: dengue virus type 4; assay: Antiviral activity against DENV4 Dakar infected in African green monkey Vero E6 cells after 3 to 4 days by RT-PCR analysis; format: functional, organism-based; settings: Vero C1008
[14] = tested on: dengue virus type 2; assay: Antiviral activity against DENV2 Martinique infected in African green monkey Vero E6 cells after 3 to 4 days by RT-PCR analysis; format: functional, organism-based; settings: Vero C1008
[15] = target: T2, Genome polyprotein (dengue virus type 2, UniProt P29990); assay: Inhibition of DENV2 NS2B-NS3 serine protease using Bz-Nle-Lys-Arg-Arg-AMC as substrate after 15 mins by fluorescence assay
[16] = tested on: dengue virus type 2; assay: Antiviral activity against DENV2 infected in BHK-21 cells assessed as reduction in viral production; format: functional, organism-based
[17] = target: T1, Nonstructural protein 5; assay: Inhibition of dengue virus NS5 RNA dependent RNA polymerase
[18] = tested on: dengue virus type 2; assay: Antiviral activity against DENV2 infected in human Huh7 cells by qRT-PCR analysis; format: functional, organism-based; settings: Huh-7
[19] = tested on: dengue virus type 2; assay: Antiviral activity against DENV2; format: functional, organism-based
[20] = tested on: dengue virus type 2; assay: Antiviral activity against DENV2 infected in BHK-21 cells by MTTR assay; format: functional, organism-based
[21] = tested on: dengue virus type 2; assay: Antiviral activity against DENV2 infected in BHK cells assessed as reduction in viral yield after 24 ro 48 hrs by luciferase reporter gene assay; format: functional, organism-based
[22] = tested on: dengue virus type 2; assay: Antiviral activity against DENV2 infected in BHK-21 cells after 72 hrs by plaque-forming assay; format: functional, organism-based; settings: BHK-21, 72 h
[23] = tested on: dengue virus type 4; assay: Antiviral activity against DENV4; format: functional, organism-based
[24] = tested on: dengue virus type 1; assay: Antiviral activity against DENV1; format: functional, organism-based
[25] = tested on: dengue virus type 3; assay: Antiviral activity against DENV3; format: functional, organism-based
[26] = target: T2, Genome polyprotein; assay: Inhibition of DENV2 NS2B-NS3 serine protease expressed using Benzoyl-Nle-Lys-Arg-Arg-AMC as substrate measured preincubated for 3 mins followed by substrate addition by fluorescence assay
[27] = tested on: dengue virus type 2; assay: Antiviral activity against DENV2 infected in BHK-21 cells assessed as viral replication; format: functional, organism-based
[28] = tested on: dengue virus type 3; assay: Antiviral activity against DENV3 infected in African green monkey Vero cells assessed as reduction in viral replication at 10 uM after 4 days by qRT-PCR analysis relative to control; format: functional; settings: 96 h
[29] = tested on: dengue virus type 4; assay: Antiviral activity against DENV4 infected in African green monkey Vero cells assessed as reduction in viral replication at 10 uM after 4 days by qRT-PCR analysis relative to control; format: functional; settings: 96 h
[30] = tested on: dengue virus type 2; assay: Antiviral activity against DENV2 infected in African green monkey Vero cells assessed as reduction in viral replication at 10 uM after 4 days by qRT-PCR analysis relative to control; format: functional; settings: 96 h
[31] = tested on: dengue virus type 1; assay: Antiviral activity against DENV1 infected in African green monkey Vero cells assessed as reduction in viral replication at 10 uM after 4 days by qRT-PCR analysis relative to control; format: functional; settings: 96 h
[32] = tested on: Dengue virus; assay: Antiviral activity against dengue virus infected in HeLa cells assessed as reduction in viral propagation after 72 hrs by RT-qPCR analysis; format: functional, organism-based

CC(C)C[C@@H]1NC(=O)[C@@H]2C[C@@H](O)CN2C1=O
EC50 [1]: 11.2 to 21.2 µM

CC1=C(Nc2c(C)cc(O)cc2O)C(=O)C=c2oc3c(c21)C(C)=C(Nc1c(C)cc(O)cc1O)C(=O)C=3
IC50 [2]: 2.3 to 21 µM
IC50 [3]: 28 to 32 µM
IC50 [4]: 2.3 to 21 µM
IC50 [5]: 28 to 32 µM

CCCCCCCCCCCCCCNCCNC(=O)C[C@]1(O)C[C@@H](O)[C@@H](O)[C@H](O)C1
IC50 [6]: 6.5 to 10.8 µM
IC50 [7]: 6.5 to 10.8 µM
IC50 [8]: 6.5 to 10.8 µM
IC50 [9]: 6.5 to 10.8 µM

O=C(N[C@@H](Cc1ccc(O)cc1)C(=O)O)c1cc(-c2ccccc2)c(=O)n2c1sc1ccc(OC3CCCCC3)cc12
IC50 [10]: 6.8 to 15 µM
IC50 [11]: 6.8 to 15 µM
IC50 [12]: 1.5 µM
IC50 [13]: 6.8 to 15 µM
IC50 [14]: 6.8 to 15 µM

O=C1c2ccccc2C(=O)N1c1ccc(S(=O)(=O)Nc2cccc3ccccc23)cc1
IC50 [15]: 122 µM

Cc1cc(N2CCN(C)CC2)ccc1NC(=O)c1c2c(nc3ccccc13)CCN(Cc1ccccc1)C2
EC50 [16]: 5 µM

C[C@@H]1O[C@@H](Oc2c(-c3ccc(O)c(O)c3)oc3cc(O)cc(O)c3c2=O)[C@H](O)[C@H](O)[C@H]1O [QUERCITRIN]
IC50 [17]: 1.7 to 2.1 µM

CC(=O)O[C@H]1[C@H]2c3cc4c(cc3CN3CCC(=C[C@@H]1O)[C@H]23)OCO4
EC50 [1]: 0.4 to 1.8 µM

CC[C@](C)(O)CCCCC[C@H]1C=CC(=O)O1
EC50 [1]: 11.2 to 21.2 µM

CNCCC(Oc1ccc(C(F)(F)F)cc1)c1ccccc1 (configuration not stated) [FLUOXETINE]
IC50 [18]: 0.38 µM

O[C@H]1[C@H]2c3cc4c(cc3CN3CCC(=C[C@@H]1O)[C@H]23)OCO4 [LYCORINE]
EC50 [1]: 0.4 to 1.8 µM

CN1CCN(CCCN2c3ccccc3Sc3ccc(Cl)cc32)CC1 [PROCHLORPERAZINE]
EC50 [19]: 0.088 µM

C/C=C(\C)C(=O)O[C@@H]1CC[C@]2(C)[C@H]3CC[C@@]4(C)[C@@H]([C@@H]5C[C@H]([C@@H]6OC6(C)C)O[C@H]5O)CC[C@]4(C)C3=CC[C@H]2C1(C)C
EC50 [20]: 3 µM

O[C@@H](c1cc(C(F)(F)F)nc2c(C(F)(F)F)cccc12)[C@H]1CCCCN1 [(S,R)-MEFLOQUINE]
EC50 [21]: 3.22 µM

O=C1C=C2CCN3Cc4cc5c(cc4[C@H]([C@@H]1O)[C@@H]23)OCO5
EC50 [1]: 0.4 to 1.8 µM

CCCCCCCCCCCCCCCC[N+](CC)(CO)CO
EC50 [22]: 1.03 µM

Oc1cccc(Nc2nc(NCc3ccc(-c4ccccc4)cc3)nc3nc[nH]c23)c1
EC50 [19]: 2.8 µM
EC50 [23]: 1.38 to 2.19 µM
EC50 [24]: 1.38 to 2.19 µM
EC50 [25]: 1.38 to 2.19 µM

Cc1ccc(C2=NC(=O)/C(=C/c3cc(O)c(O)c(Br)c3)S2)cc1
IC50 [26]: 2.94 to 4.06 µM
EC50 [27]: 6.9 µM

N#C/C(=C\c1ccc(-c2ccc(C(=O)O)cc2)s1)c1nc2cc(Cl)ccc2[nH]1
inhibition at 10 µM [28]: 50 to 82%
inhibition at 10 µM [29]: 50 to 82%
inhibition at 10 µM [30]: 50 to 82%
inhibition at 10 µM [31]: 50 to 82%

CCCCCCCCCCCCNCCNC(=O)C[C@@]1(O)C[C@@H](O)[C@@H]2OC(C)(C)O[C@@H]2C1
IC50 [6]: 6.9 to 10.4 µM
IC50 [7]: 6.9 to 10.4 µM
IC50 [8]: 6.9 to 10.4 µM
IC50 [9]: 6.9 to 10.4 µM

CC(C)CC(=O)c1c(O)c2c(c3c(-c4ccccc4)cc(=O)oc13)OC(C)(C)C=C2 [ISOMAMMEIGIN]
EC50 [19]: 2.6 to 10.2 µM

CCCc1cc(=O)oc2c(C(=O)CC(C)C)c(O)c(CC=C(C)C)c(O)c12
EC50 [19]: 2.6 to 10.2 µM

C=C(C)[C@@H]1CC[C@]2(C(=O)O)CC[C@]3(C)[C@H](CC[C@@H]4[C@@]5(C)CC[C@H](O)C(C)(C)[C@@H]5CC[C@]43C)[C@@H]12 [BETULINIC ACID]
IC50 [17]: 1.7 to 2.1 µM

CCc1ccc(NS(=O)(=O)c2ccc(N3C(=O)c4ccccc4C3=O)cc2)cc1
IC50 [15]: 48.2 µM

CCN(CC)Cc1ccc(C(=O)N(CCc2ccccc2OC)[C@@H]2CCNC2)cc1
IC50 [32]: 36.5 µM
IC90 [32]: 35.5 µM

OCc1cc(C(O)CNCCCCCCOCCCCc2ccccc2)ccc1O (configuration not stated) [SALMETEROL]
IC50 [18]: 0.67 µM
